In PubChem BioAssay AID1645848:
In brackets after ≈: the same amount, converted by molar mass.

Settings: buffer; pH 7.4; 6.0 h; 150.0 µM
With `COc1ccc(N(C)C(=O)c2cc3c(s2)-c2ccccc2OC3)cc1` the solubility kinetic was < 1 µg/mL. For `Clc1cccc(-c2ccc(-c3nnc(CCCc4ccc5cccnc5n4)o3)cc2)c1`, the solubility kinetic was < 1 µg/mL. With `O=C(Nc1cccc(S(=O)(=O)C(F)(F)F)c1)c1ccccc1NC(=O)c1ccccc1OCC(F)(F)F` the solubility kinetic was < 1 µg/mL. Compound `O=C1Nc2c(Cl)cccc2/C1=C\c1cc(Cl)c(O)c(Cl)c1` has a solubility kinetic of 7.3 µg/mL (≈ 21.4 µM). In the case of `CCCCOc1ccc(CNC(=O)c2cc3n(n2)CCCN(Cc2ccc(C)cc2)C3=O)cc1`, the solubility kinetic was < 1 µg/mL. With `CN(C)c1cccc(-c2ncc(F)c(N3CCC(C(N)=O)CC3)n2)c1` the solubility kinetic was > 51 µg/mL. For `CCOC(=O)c1ccc(NC(=O)N2Cc3[nH]cnc3C[C@H]2c2nc(C(C)C)no2)cc1`, the solubility kinetic was > 63 µg/mL. In the case of `CCOC(=O)c1[nH]c(C)c(CCC(=O)N2CCN(c3cccc(C)c3C)CC2)c1C`, the solubility kinetic was < 1 µg/mL. For `C=CCc1ccc(O)c(-c2ccc(O)c(CC=C)c2)c1`, the solubility kinetic was > 100 µg/mL. For `Cc1nc(NCc2ccco2)nc2c1C(=O)CC(C)C2` (stereo not given), the solubility kinetic was > 40 µg/mL. For `Cc1ccc(S(=O)(=O)Nc2ccccc2Nc2nc(-c3ccccc3)cs2)cc1`, the solubility kinetic was < 1 µg/mL. With `O=C(Nc1ccccc1-c1cn2c(CN3CCNCC3)csc2n1)c1cnc2ccccc2n1` the solubility kinetic was 4.56 µg/mL (≈ 9.71 µM). For `O=C1CCCC2=C1C(c1ccncc1Br)N=C(Nc1nc3ccccc3o1)N2` (stereo not given), the solubility kinetic was < 1 µg/mL. For `Cc1ccccc1C(=O)N1CCc2cc(-c3nc(NC(=O)Cc4ccc5ccccc5c4)sc3C)ccc21`, the solubility kinetic was < 1 µg/mL. With `Cc1ccc(S(=O)(=O)Nc2ccc(Cl)c(C(=O)Nc3nc(-c4ccccc4)cs3)c2)cc1` the solubility kinetic was < 1 µg/mL. In the case of `COc1cc(-c2nc(Nc3ccc(F)c(F)c3)c3ccccc3n2)cc(OC)n1`, the solubility kinetic was < 1 µg/mL. For `CCOc1ccc(NC(=O)c2nc(S(=O)(=O)Cc3ccccc3F)ncc2Cl)cc1`, the solubility kinetic was < 1 µg/mL. For `Cc1ccccc1S(=O)(=O)N1CCc2cc(-c3nc(NC(=O)Cc4ccc5c(c4)OCO5)sc3C)ccc21`, the solubility kinetic was < 1 µg/mL. For `Cn1c(CN2CCCCC2)nc2cc(NC(=O)c3cccc(Br)c3)ccc21`, the solubility kinetic was > 63 µg/mL. With `COc1ccc(C2C=C(c3ccc(Cl)cc3)Nc3nc(-c4ccc(Cl)cc4)nn32)cc1` (stereo not given) the solubility kinetic was < 1 µg/mL. In the case of `CCOC(=O)NNc1ccc(N(CC)CC(C)O)nn1` (stereo not given), the solubility kinetic was 4.72 µg/mL (≈ 16.7 µM). In the case of `C[C@@H]1C(=O)O[C@H]2[C@H]1CC[C@@]1(C)Cc3sc(NS(=O)(=O)Cc4ccccc4)nc3[C@@H](C)[C@H]21`, the solubility kinetic was > 68 µg/mL. With `COc1cc(Cl)cn2c(-c3cccc(NC4CNC4)n3)cnc12` the solubility kinetic was > 49 µg/mL. For `CNc1oc(-c2cccc3ccccc23)nc1C#N`, the solubility kinetic was < 1 µg/mL. With `Fc1cc(Nc2nc(-c3ccncc3)nc3ccccc23)ccc1-c1ccnc(C(F)(F)F)c1` the solubility kinetic was < 1 µg/mL. `O=c1cc(/C=C/c2c(F)cccc2Cl)[nH]c2ccccc12` showed a solubility kinetic of 1.73 µg/mL (≈ 5.77 µM). With `CC(C(O)c1ccc(O)cc1)N1CCC(Cc2ccccc2)CC1` (stereo not given) the solubility kinetic was > 48 µg/mL. For `Cc1ccc(-c2nnc(Nc3ccc(Br)cc3)c3ccccc23)cc1S(=O)(=O)N1CCN(C)CC1`, the solubility kinetic was < 1 µg/mL. Compound `COc1cc(NC(=O)c2nc3ccccc3n(C)c2=O)cc(OC)c1OC` has a solubility kinetic of 7.16 µg/mL (≈ 19.4 µM). With `O=C(Oc1ccc[nH]c1=O)c1cc([N+](=O)[O-])cc([N+](=O)[O-])c1` the solubility kinetic was > 45 µg/mL. With `Cc1ccc(-c2csc(N3CCC(C(N)=O)CC3)n2)cc1` the solubility kinetic was 32.9 µg/mL (≈ 109 µM). In the case of `Cc1ccc(-c2cc(C(=O)Nc3ccc(S(=O)(=O)N(C)Cc4nccs4)cc3)c3ccccc3n2)cc1C`, the solubility kinetic was 3.73 µg/mL (≈ 6.88 µM). For `Cc1cccc(-c2cc(NC(=O)c3ccccc3C)n(-c3ccccc3)n2)c1`, the solubility kinetic was < 1 µg/mL. With `C1CCc2nc3c(nc2C1)CCCC3` the solubility kinetic was > 28 µg/mL. With `CC(=O)NC(c1cccs1)c1cc(Br)c2cccnc2c1O` (stereo not given) the solubility kinetic was < 1 µg/mL. With `Cc1ccc(S(=O)(=O)Nc2cnccc2C(=O)Nc2nc(-c3ccco3)cs2)cc1` the solubility kinetic was > 65 µg/mL. For `O=c1[nH]c(N2CCOCC2)nc2c1CCN(Cc1ccc(Cl)cc1F)CC2`, the solubility kinetic was > 58 µg/mL. In the case of `Cc1ccc(S(=O)(=O)Nc2ccc(C(=O)Nc3ncc(-c4ccccc4)s3)cc2)cc1`, the solubility kinetic was < 1 µg/mL. In the case of `Fc1cc(-c2nc(Nc3ccc(F)c(F)c3)c3ccccc3n2)ccn1`, the solubility kinetic was < 1 µg/mL. For `Cc1ccc(S(=O)(=O)Nc2ccccc2C(=O)Nc2nc(-c3ccccc3)cs2)cc1`, the solubility kinetic was < 1 µg/mL. For `COc1cccc(C(=O)Nc2nc(-c3nnn(-c4cccc(Cl)c4C)c3C)ns2)c1`, the solubility kinetic was < 1 µg/mL. For `Cc1ccnc(NC(=S)N2CCN(c3cc(Cl)cc(Cl)c3)CC2)c1`, the solubility kinetic was 2.32 µg/mL (≈ 6.09 µM). With `CCN(CCN(C)C)C(=O)C1CCN(S(=O)(=O)c2c(C)noc2/C=C/c2ccccc2F)CC1` the solubility kinetic was > 49 µg/mL. For `C[C@@H](NC(=O)c1ncnc(N)c1Cl)c1ncc(C(=O)Nc2cc(C(F)(F)F)c(Cl)cn2)s1`, the solubility kinetic was > 75 µg/mL. With `O=C(Nc1ccc(Nc2ccncc2)cc1)c1ccc(Nc2ccnc3ccc([N+](=O)[O-])cc23)cc1[N+](=O)[O-]` the solubility kinetic was < 1 µg/mL. In the case of `COc1cc(Nc2nc(-c3ccncc3)nc3ccccc23)ccc1N1CCN(C)CC1`, the solubility kinetic was > 63 µg/mL. With `CCOC(=O)Nc1cc(-c2ccc(C)c(NS(C)(=O)=O)c2)nn2c(C)nnc12` the solubility kinetic was 33.6 µg/mL (≈ 83.2 µM). With `CCCN1CNc2c(c(=O)[nH]c(=S)n2CCc2ccc(OC)c(OC)c2)C1` the solubility kinetic was > 58 µg/mL. For `Cn1ccc2c(C(=O)NCc3cccnc3)nc(-c3ccccc3C#N)cc21`, the solubility kinetic was < 1 µg/mL. With `COc1oc(-c2cccc3ccccc23)nc1C(=O)O` the solubility kinetic was > 40 µg/mL. For `Cc1csc2nc(-c3cccc(NC(=O)c4cccc(F)c4)c3)cn12`, the solubility kinetic was < 1 µg/mL. In the case of `COc1cc2nc(N3CCCC3)nc(NCCCCCN3CCCC3)c2cc1OC`, the solubility kinetic was > 61 µg/mL. With `N#Cc1nc(-c2cccc3ccccc23)oc1NCc1ccccc1` the solubility kinetic was < 1 µg/mL. Compound `O=S(=O)(Nc1cccc2ccncc12)c1ccc(NCc2cccc(Cl)c2O)cc1` has a solubility kinetic of 4.67 µg/mL (≈ 10.6 µM). For `CCCCn1cc2c(c1-c1ccc(Br)cc1)c(=O)n(C)c(=O)n2C`, the solubility kinetic was < 1 µg/mL. In the case of `COC(=O)CSc1nc(-c2ccccc2)cc(-c2ccco2)c1C#N`, the solubility kinetic was < 1 µg/mL. For `COc1ccc(-n2nc(C3CCCN(C(=O)C4CC4)C3)[nH]c2=O)cc1` (stereo not given), the solubility kinetic was > 51 µg/mL. For `O=C(c1ccc2c(c1)ncn2-c1ccccc1)N1CCCCC1`, the solubility kinetic was > 45 µg/mL. In the case of `CC(=O)Nc1ccc(C(=O)Nc2ccc3c(c2)N(C2CCCC2)C(=O)c2ccccc2S3)cc1`, the solubility kinetic was < 1 µg/mL. In the case of `Fc1ccccc1-c1ccc(Nc2nc(-c3ccncc3)nc3ccccc23)cc1F`, the solubility kinetic was < 1 µg/mL. With `CN(C)c1ccc(-c2cc[nH]c(=O)c2N)cc1` the solubility kinetic was > 34 µg/mL. For `CC1=C(C(=O)Nc2ccc(Cl)cc2)C(c2ccccc2C)n2ncc(C(=O)Nc3ccc(C)cc3)c2N1` (stereo not given), the solubility kinetic was < 1 µg/mL. With `CN1CCc2cc3c(cc2C1)OCO3` the solubility kinetic was > 28 µg/mL. In the case of `O=S(=O)(Nc1ccc2ccccc2c1)c1ccc(NCc2ccc(Br)cc2O)cc1`, the solubility kinetic was < 1 µg/mL. `Cc1cc(-c2nnc3n2CCCCC3)c(C)n1-c1ccc(F)cc1` showed a solubility kinetic of 35.3 µg/mL (≈ 109 µM). With `Cc1ccnc(NC(=S)N2CCN(c3ccc(C(F)(F)F)cc3)CC2)c1` the solubility kinetic was < 1 µg/mL. For `O=C(c1ccc2c(c1)ncn2-c1cccc(C(F)(F)F)c1)N1CCCCC1`, the solubility kinetic was > 55 µg/mL. With `Cc1cccc(CS(=O)(=O)c2ncc(Cl)c(C(=O)Nc3nc4ccc(F)cc4s3)n2)c1` the solubility kinetic was < 1 µg/mL. With `NC(=O)C1CCN(c2nccc(-c3ccc4c(c3)OCCCO4)n2)CC1` the solubility kinetic was 44.2 µg/mL (≈ 125 µM). With `CCCCCCCc1c(C)nc(N2CCOCC2)[nH]c1=O` the solubility kinetic was 4.18 µg/mL (≈ 14.3 µM). Work on `CCc1ccc(NC(=O)c2cc3ncccn3n2)cc1` yielded a solubility kinetic of 6.75 µg/mL (≈ 25.3 µM). `CCc1ccc(NC(=O)c2[nH]c(C)c(C(C)=O)c2C)cc1[S+](=O)([O-])N1CCCCCC1` showed a solubility kinetic of 1.19 µg/mL (≈ 2.67 µM). With `COc1ccc(OC)c(N2C(=O)C(Cl)=C(N3CCCCC3)C2=O)c1` the solubility kinetic was < 1 µg/mL. With `Cc1cc(C)nc(NS(=O)(=O)c2ccc(NC(=S)NC(=O)COc3ccc(Br)cc3Cl)cc2)n1` the solubility kinetic was > 100 µg/mL. With `Fc1ccc(Nc2nc(-c3ccnc(N4CCCCC4)c3)nc3ccccc23)cc1F` the solubility kinetic was < 1 µg/mL. With `Cc1cccc(-n2ccc(=O)c(C(=O)Nc3ccc(S(=O)(=O)Nc4nccs4)cc3)n2)c1` the solubility kinetic was < 1 µg/mL. In the case of `NC(=O)C1CCN(c2nc(-c3ccc4c(c3)OCO4)cs2)CC1`, the solubility kinetic was > 49 µg/mL. In the case of `COc1cccc(CN(C)c2ccc([S+](=O)([O-])Nc3nccs3)cc2)c1O`, the solubility kinetic was 2.08 µg/mL (≈ 5.13 µM). In the case of `CCOC(=O)c1cc(C)sc1NC(=O)c1ccc(Cl)s1`, the solubility kinetic was < 1 µg/mL. In the case of `c1ccc2c(Nc3ccon3)nc(-c3ccncc3)nc2c1`, the solubility kinetic was < 1 µg/mL. With `CSc1ccc(/C=C/c2nc3ccccc3n2S(=O)(=O)c2cccc(Cl)c2)cc1` the solubility kinetic was < 1 µg/mL. Work on `CC1=NN(c2ccc(C(=O)O)cc2)C(=O)/C1=C/c1ccc(-c2cc(C)c(C)cc2[N+](=O)[O-])o1` yielded a solubility kinetic of 1.01 µg/mL (≈ 2.26 µM). `CCOC(=O)c1cnc2ccc(-c3cncc(NS(=O)(=O)c4ccccc4)c3)cn12` showed a solubility kinetic of 6.49 µg/mL (≈ 15.4 µM). For `CCOc1ccc(CCNC(=O)c2ccc(C(=O)c3ccccc3)cc2)cc1OCC`, the solubility kinetic was < 1 µg/mL. For `c1ccc(CNc2nc(NCc3ccccc3)c3ccccc3n2)cc1`, the solubility kinetic was < 1 µg/mL. With `CC1CCC(n2c3cnccc3c3cnc(Nc4ccc5c(n4)CCN(C(=O)CO)C5)nc32)CC1` (stereo not given) the solubility kinetic was < 1 µg/mL. Compound `CNC(=O)C1CCN(C(=O)c2ccc(-c3ncc4cnc(-c5ccccc5)cn34)cc2)CC1` has a solubility kinetic of 40.8 µg/mL (≈ 92.7 µM). For `Clc1ccc(Nc2nc(-c3ccncc3)nc3ccccc23)cc1Cl`, the solubility kinetic was < 1 µg/mL. For `CC(=O)c1c(C)[nH]c(C(=O)Nc2cccc(S(=O)(=O)Nc3ccc(Br)cc3)c2)c1C`, the solubility kinetic was < 1 µg/mL. With `O=C(Cc1c[nH]c2ncc(-c3ccc(Cl)cc3)cc12)NCc1cccnc1` the solubility kinetic was 17.5 µg/mL (≈ 46.4 µM). In the case of `CC(=O)N1CCC(NC(=O)c2nc(-c3ccccc3)cc3[nH]ccc23)CC1`, the solubility kinetic was > 80 µg/mL. `Cc1cc(-c2nnc3n2CCCCC3)c(C)n1-c1ccc(Br)cc1` gave a solubility kinetic of 27.4 µg/mL (≈ 71.1 µM). `COc1ccc(NC(=O)c2c(C)cccc2C)cc1[S+](=O)([O-])N1CCCCC1` showed a solubility kinetic of 38.8 µg/mL (≈ 96.3 µM). `COc1cccc(CNc2ccc(S(=O)(=O)Nc3nc4ccccc4[nH]3)cc2)c1O` showed a solubility kinetic of 2.59 µg/mL (≈ 6.1 µM). In the case of `CC(=O)Nc1nc(-c2ccc3c(c2)CCN3C(=O)c2ccccc2C)c(C)s1`, the solubility kinetic was < 1 µg/mL. In the case of `Cn1c2cc(S(C)=O)sc2c2cnn(Cc3cccc(N)c3)c(=O)c21` (stereo not given), the solubility kinetic was > 55 µg/mL. With `Cc1ccnc(NC(=S)N2CCN(c3ccc(Cl)c(Cl)c3)CC2)c1` the solubility kinetic was < 1 µg/mL. With `NC1CCC(Nc2nc(Nc3ccc(C(=O)N4CCCCC4)cc3)c3ncn(-c4cccc(F)c4)c3n2)CC1` (stereo not given) the solubility kinetic was 57.5 µg/mL (≈ 109 µM). With `Cc1cc(NS(=O)(=O)c2ccc(C(=O)NCc3ccc(Cl)c(Cl)c3)cc2)no1` the solubility kinetic was > 65 µg/mL. In the case of `O=C1CCCC2=C1C1(CCSC1)N=C(Nc1nc3ccccc3o1)N2` (stereo not given), the solubility kinetic was < 1 µg/mL.
